Laboratory results reported in publication PMC4012456 (Marine Drugs, 2014).
Where a name gives a salt, the structure may show the parent alone. Read-outs that look alike come from different tables or passages of the source.

Assays:
[1] = molecular target: T1, murine muscle-type nAChR (Mus musculus, UniProt P02716+P04756+P09690+P20782); experiment: electrophysiology on muscle nAChR expressed in Xenopus laevis oocytes; type: cell-based; conditions: for inhibition of agonist-evoked current on muscle nAChR (in words): 10 μM acetylcholine; for reversibility of inhibition of muscle nAChR: wash out
T1 construct: expressed in transfected cells; host or cells: Xenopus laevis oocytes injected with plasmid DNA (CMV promoter)

[2] = molecular target: L. stagnalis AChBP (Lymnaea stagnalis, UniProt P58154); parameters: method as in PMID 18338186; conditions: read-out: Kd, affinity to L. stagnalis AChBP; quenching of intrinsic tryptophan fluorescence; cited from earlier work
[3] = 10 μM compound, Xenopus oocytes

T1 sequence (P04756 21-457): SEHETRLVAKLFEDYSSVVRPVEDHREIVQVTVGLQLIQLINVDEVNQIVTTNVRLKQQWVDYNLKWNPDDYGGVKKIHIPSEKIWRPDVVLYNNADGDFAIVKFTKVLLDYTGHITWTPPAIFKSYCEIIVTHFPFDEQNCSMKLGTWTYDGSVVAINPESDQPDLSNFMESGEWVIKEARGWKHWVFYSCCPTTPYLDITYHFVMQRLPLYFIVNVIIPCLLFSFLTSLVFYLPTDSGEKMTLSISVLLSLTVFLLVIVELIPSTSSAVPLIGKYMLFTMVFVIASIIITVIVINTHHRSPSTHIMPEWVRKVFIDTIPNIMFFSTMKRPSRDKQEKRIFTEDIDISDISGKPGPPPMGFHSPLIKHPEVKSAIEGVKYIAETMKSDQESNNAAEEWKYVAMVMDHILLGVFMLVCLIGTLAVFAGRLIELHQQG
T1 sequence (P09690 24-501): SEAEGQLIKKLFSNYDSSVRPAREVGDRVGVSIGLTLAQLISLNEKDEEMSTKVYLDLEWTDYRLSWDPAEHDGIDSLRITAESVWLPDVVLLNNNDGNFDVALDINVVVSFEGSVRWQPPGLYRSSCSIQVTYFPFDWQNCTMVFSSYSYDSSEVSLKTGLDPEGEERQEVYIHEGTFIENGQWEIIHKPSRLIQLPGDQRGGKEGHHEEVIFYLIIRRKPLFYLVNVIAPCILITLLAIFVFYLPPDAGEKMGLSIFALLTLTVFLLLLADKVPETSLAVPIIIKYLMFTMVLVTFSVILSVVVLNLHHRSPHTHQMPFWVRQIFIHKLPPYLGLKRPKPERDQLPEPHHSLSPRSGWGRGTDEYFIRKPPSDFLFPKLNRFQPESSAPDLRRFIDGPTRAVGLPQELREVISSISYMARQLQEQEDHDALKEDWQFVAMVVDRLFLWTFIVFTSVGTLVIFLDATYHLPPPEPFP
T1 sequence (P02716 25-520): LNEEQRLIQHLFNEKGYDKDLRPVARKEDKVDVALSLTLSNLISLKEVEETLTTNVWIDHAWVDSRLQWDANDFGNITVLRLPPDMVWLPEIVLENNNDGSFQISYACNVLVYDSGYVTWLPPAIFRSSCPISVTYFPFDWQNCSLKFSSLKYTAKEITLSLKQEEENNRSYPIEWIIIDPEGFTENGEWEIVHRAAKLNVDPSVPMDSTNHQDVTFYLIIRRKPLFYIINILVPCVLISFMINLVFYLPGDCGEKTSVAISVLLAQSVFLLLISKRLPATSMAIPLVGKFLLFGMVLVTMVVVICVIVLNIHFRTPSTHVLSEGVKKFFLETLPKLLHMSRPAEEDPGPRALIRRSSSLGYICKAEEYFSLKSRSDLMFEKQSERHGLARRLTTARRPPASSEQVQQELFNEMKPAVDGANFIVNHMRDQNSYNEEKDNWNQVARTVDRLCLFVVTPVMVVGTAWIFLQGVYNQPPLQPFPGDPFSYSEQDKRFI
T1 sequence (P20782 21-493): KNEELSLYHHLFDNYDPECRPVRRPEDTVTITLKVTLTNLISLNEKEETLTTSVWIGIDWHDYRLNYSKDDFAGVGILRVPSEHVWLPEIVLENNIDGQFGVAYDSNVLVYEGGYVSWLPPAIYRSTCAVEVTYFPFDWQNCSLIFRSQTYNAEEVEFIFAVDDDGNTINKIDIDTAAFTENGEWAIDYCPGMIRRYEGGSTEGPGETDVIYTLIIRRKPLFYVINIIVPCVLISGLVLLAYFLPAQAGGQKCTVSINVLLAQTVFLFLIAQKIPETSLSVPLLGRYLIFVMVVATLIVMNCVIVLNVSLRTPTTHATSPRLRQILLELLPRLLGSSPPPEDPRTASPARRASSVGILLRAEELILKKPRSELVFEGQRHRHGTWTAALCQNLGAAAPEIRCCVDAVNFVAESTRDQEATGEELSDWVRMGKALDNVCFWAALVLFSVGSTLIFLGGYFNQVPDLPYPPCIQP
L. stagnalis AChBP, sequence (P58154 20-229 limits assumed): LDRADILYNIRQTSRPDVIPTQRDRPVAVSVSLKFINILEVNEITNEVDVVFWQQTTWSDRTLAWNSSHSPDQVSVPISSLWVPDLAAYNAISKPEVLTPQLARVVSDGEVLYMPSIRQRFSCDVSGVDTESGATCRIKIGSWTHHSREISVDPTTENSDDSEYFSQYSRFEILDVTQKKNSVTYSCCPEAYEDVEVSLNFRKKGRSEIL

Row | Structure (SMILES) | inhibition of agonist-evoked current on muscle nAChR (in words) [1, 3] | IC50 [1] | reversibility of inhibition of muscle nAChR ([1]; 10 μM compound) | further results
1 | C[N+]1=C2C=C(N)C(=O)c3[nH]cc(c32)CC1 [Compound 5, makaluvamine C] | weaker but still reproducible effect |  |  | 
2 | COc1cc(CCN)c2c(c1OC)SSSSS2 [Compound 4, Varacin] | moderate activity | 8.7 ± 0.4 µM |  | 
3 | C[C@@H]1C[C@@H]2c3cccc4[nH]c(Br)c(c34)C[C@H]2N(C)C1 [Compound 3, pibocin] | moderate activity | 3.7 ± 0.2 µM |  | 
4 | CC/C=C/[C@@H]1CC[C@]2(C[C@H]3CC[C@H]4[C@@H](C(=O)OC(CC)CCCCCCCCCCCCC[C@@H]5O[C@](O)(CCN)[C@H](O)N(CCCN)C5=O)[C@@]5(CCC[C@H](C)O5)NC(=N2)N34)O1 (some centres unmarked) [Compound 13, monanchocidin] | almost completely |  | very slowly reversible | IC50 ([1]; read-out: IC50, current inhibition on muscle nAChR, acetylcholine-evoked current (10 μM acetylcholine), Xenopus oocytes): 4.1 ± 0.6 µM
5 | C[n+]1ccccc1-c1cccc[n+]1C [Compound 8, 1,1′-Dimethyl-[2,2′]-bipyridyldiium salt] | extremely weak, if any, activity |  |  | 
6 | Cn1c(=N)c2[nH]cnc2n(C)c1=O [Compound 11, 1,3-Dimethylisoguaniniium hydrochloride] | extremely weak, if any, activity |  |  | 
7 | COc1cc2ccnc3c2c(c1OC)NC=C3 [Compound 12, Aaptamine] | moderate activity |  |  | 
8 | Cn1cc2c3c1C(=O)C(N/C=C/c1ccc(O)cc1)=CC3=[N+](C)CC2 [Compound 6, makaluvamine G] | almost completely | 3.3 ± 0.3 µM | fast off-set rate | receptor recovery time from the end of compound application ([1]; 10 μM compound, muscle nAChR): 5 min
9 | C[C@@H](N)[C@H](O)CCCCCCCCCCCCCCC(=O)CCCCCCC[C@@H](O)[C@@H](C)N [Compound 2, aglycone of rhizochalin] | almost completely | 2 ± 0.3 µM | very slowly reversible | 
10 | O=C1NCCc2cncn21 [Compound 10, 7,8-Dihydroimidazo-[1,5-c]-pyrimidin-5(6H)-one] | extremely weak, if any, activity |  |  | 
11 | C[C@@H](N)[C@H](O)CCCCCCCC(=O)CCCCCCCCCCCCCC[C@@H](O[C@@H]1O[C@H](CO)[C@H](O)[C@H](O)[C@H]1O)[C@@H](C)N [Compound 1, Rhizochalin] | almost completely |  | very slowly reversible | 
12 | CN/C(=N\[N+](=O)[O-])NCc1cnc(Cl)s1 [clothianidin] |  |  |  | Kd [2]: 7.3 µM
13 | NC1=N/C(=C2/CCNC(=O)c3[nH]ccc32)C(=O)N1 [Compound 7, Debromohymenialdesine] | extremely weak, if any, activity |  |  | 
